Test results from PMC12434536, “Radiosynthesis and Preclinical Evaluation of a Carbon-11 Labeled Phosphodiesterase 7 Inhibitor for PET Neuroimaging” (ACS Medicinal Chemistry Letters, 2025).

What was measured:
PDE4D3 = settings: Figure 1, literature compounds; cited from earlier work
PDE7A1 = settings: Figure 1, literature compounds; cited from earlier work
PDE4A4 = settings: Figure 1, literature compounds; cited from earlier work
[1] = target: T1, HEK293-PDE7B recombinant cell lines (Homo sapiens, UniProt Q9NP56); assay: In vitro cell uptake and blocking of [11C]27; type: cell-based
T1 construct: host or cells: HEK293
Experimental: Control study: HEK293-PDE7B Recombinant cells (catalog#60412, BPS Bioscience) and HEK293 control cells (catalog# CRL-1573, ATCC) – both in logarithmic growth phase – were plated in a 24 well plate (2 × 10^5 cells per well) and cultured overnight. After 24 hr, each well was added 2 μCi of [ 11C]27, and incubated at 37 °C for 30 min or 60 min. The radioactive medium was aspirated and collected in a tube. The residual cells were washed twice with PBS, and then collected in the same tube. The cells were lysed with 1 N NaOH (200 μL) and washed twice with PBS, all the resulting solutions were collected in one tube.
The radioactivity in the collected supernatant and cell lysis buffer (600 μL/tube) was measured using a Cobra Model 5002/5003 gamma counter, respectively.
Blocking study: HEK293-PDE7B cells in logarithmic growth phase were plated in 24 well plate (2 × 10^5 cells per well) and cultured overnight. After 24 h, each well was added 2 μCi of [11C]27 with or without unlabeled reference compound 27 or BRL50481, respectively. The resulting culture medium contained 2 μCi of [ 11C]27, 1 µM of unlabeled compound 27 or BRL50481, and 5% DMSO. Cells were incubated at 37 °C for 60 min and samples were collected as described for the control study. The cell uptake was calculated according to the following eq.: cell uptake% = A lysis buffer/(A lysis buffer+Asupernate) (n = 4)

PDE7B = settings: Figure 1, literature compounds; cited from earlier work
PDE7A = settings: Figure 1, literature compounds; cited from earlier work
GSK3 = settings: Figure 1, literature compounds; cited from earlier work
PDE7 [2] = settings: Figure 1, literature compounds; cited from earlier work
[3] = Lipophilicity by shake-flask method; type: physicochemical; settings: pH 7.4, n-octanol/PBS, n = 3
Experimental: The general procedure for lipophilicity measurement was previously described, 4 with minor modification in this work. Briefly, the measurement of LogD value was carried out by mixing [11C]27 (radiochemical purity > 99%) with n-octanol (3.0 g) and PBS (0.1 M, 3.0 g) in a test tube. Both n-octanol and PBS were pre-saturated with each other prior to use. The tube was first vortexed for 5 min, followed by centrifugation (~3500-4000 rpm) for an additional 5 min. PBS and n-octanol were aliquoted, weighed and the radioactivity in each component was measured using a Cobra Model 5002/5003 gamma counter. The LogD was determined by Log [ratio of radioactivity in n-octanol and aqueous layer, respectively] (n = […]
For the evaluation of plasma protein binding,5 55.5 MBq radiotracer was added to 150 μL of plasma, which was pre-incubated under 37 °C for 5 min (n = 3). The samples were incubated at 37 °C for 10 min. To each 150 μL of radiotracer-plasma solution was added 300 μL of ice-cold PBS and all samples were briefly vortexed. […] The radioactivity (in Becquerel) was measured in the protein fraction (Aprotein), filtrate, and filter unit using a gamma counter (Wizard, PerkinElmer), Atotal was calculated as the sum of radioactivity, and the free fraction f u was calculated according to the following eq.: f u = 1-

[4] = Radiometabolite analysis in brain and plasma; type: in vivo, SD rats; settings: n = 2; for parent fraction in plasma: rat plasma
Experimental: After intravenous injection of [11C]27 through the tail vein, SD rats were sacrificed at 5 min and 30 min post injection. Blood samples were collected and centrifuged at 14,000 rpm for 3 min at 4 °C to separate the plasma. The supernatant was collected and added to an ice-cooled test tube containing 100 μL of CH 3CN. After vortex for 10 s, the mixture was centrifuged at 14000 rpm for 3 min at 4 °C for deproteinization. The supernatant was collected, and the process was repeated until no precipitations were observed when CH3CN was added. The rat brain was immediately dissected, homogenized with 400 μL of ice-cooled CH3CN, and then centrifuged at 14,000 rpm for 5 min at 4 °C. The supernatant was collected in a test tube containing 100 μL of ice-cooled CH 3CN, and the process (vortex and centrifuge) was repeated until no precipitations were observed when CH3CN was added. An aliquot of the supernatant (100 µL), obtained from the brain homogenate, was injected into and analyzed by a radio-HPLC system. The percentage of [11C]27 to total radioactivity (corrected for decay) on the HPLC charts was calculated as (peak area for [11C]27/total peak area) × 100. The same procedure was used for metabolite analysis in plasma.
Statistical analysis was performed by Student’s two-tailed t-test, and asterisks were used to indicate statistical significance: * p < 0.05, ** p ≤ 0.01, *** p ≤ 0.001 and ****p < 0.0001.

[5] = In vitro stability of the formulated tracer (PBS with 10% ethanol; serum); type: in vitro ADME; settings: 30, 60, 90 min; PBS containing 10% ethanol and serum of rodents, NHPs, humans
[6] = Whole-body ex vivo biodistribution; type: in vivo; settings: CD-1 mice
Experimental: PET imaging in nonhuman primates
Cynomolgus monkeys used for PET/CT scan were deprived of food for 12h but allowed to drink water at any time. Animals (Male, bodyweight 5.0-5.2 kg) were anesthetized with ketamine, placed into the scanner (GE Discovery Elite 690, USA), and maintained with 2% isoflurane and 98% oxygen. A solution of [11C]27 (6.24–9.84 mCi) was injected into the monkey via a venous catheter, followed by a dynamic PET scan. For the blocking study, the blocking reagent reference compound 27 (0.4 or 1.0 mg/kg, iv) was used, followed by the injection of [11C]27. Time-activity curves of each brain region were extracted from the corresponding VOIs and brain uptake was decay-corrected and expressed as SUV. biodistribution studies in miceWhole-body ex vivo
A solution of [11C]27 (1.85 MBq/100 µL) was injected into CD-1 mice via the tail vein.
Animals were sacrificed at 5, 15, 30, and 60 min post radiotracer injection (n= 4 for each time point). […] The radioactivity in these tissues was measured using a Cobra Model 5002/5003 gamma counter, and all radioactivity measurements were decay corrected based on the half-life of carbon-11. The results are expressed as the percentage of injected dose per gram of wet tissue (%ID/g).

PDE7 [7] = assay: PET imaging in rats (baseline and self-blocking); type: in vivo, Sprague-Dawley rats; settings: rats
Experimental: page 10: All animal experiments were approved by the Institutional Animal Care and Use Committee of Massachusetts General Hospital or the National Institute of Radiological Sciences (Japan). C57BL/6 mice (female; 8 weeks, 20-25 g) and Sprague-Dawley rats (male; 8-9 weeks; 264-310 g) were kept on a 12 h light/12 h dark cycle and were allowed food and water ad libitum. Rodent PET scans were carried out using a […] (Sofie Biosciences, Culver, CA, USA) or a Siemens Inveon PET/CT system. Animals were kept under anesthesia using 1-2% (v/v) isoflurane in oxygen during the scan. The radiotracer (1.85 MBq for mice; 42-53 MBq for rats) was injected into the tail vein via a preinstalled catheter. A dynamic scan in 3D list mode was acquired for 60 min. The PET dynamic images were reconstructed using the manufacturer's acquisition software. Volumes of interest, including whole brain, cortex, striatum, hippocampus, thalamus and cerebellum were placed using AMIDE / PMOD software. The radioactivity was decay-corrected and expressed as standardized uptake value (SUV = radioactivity per mL tissue / injected radioactivity × bodyweight). S8

PDE7 [8] = assay: PET imaging in nonhuman primates (baseline and self-blocking); type: in vivo, Cynomolgus monkeys; settings: monkeys
PDE7 [9] = assay: microPET imaging in mice; type: in vivo, C57BL/6 mice; settings: p.i.
Experimental: C57BL/6 mice (female; 8 weeks, 20–25 g) and Sprague-Dawley rats (male;
Rodent PET scans were carried out using a Genisys 4 PET (Sofie Biosciences, Culver, CA,
manufacturer’s acquisition software. Volumes of interest, including whole brain, cortex,

T1 sequence (Q9NP56 whole entry): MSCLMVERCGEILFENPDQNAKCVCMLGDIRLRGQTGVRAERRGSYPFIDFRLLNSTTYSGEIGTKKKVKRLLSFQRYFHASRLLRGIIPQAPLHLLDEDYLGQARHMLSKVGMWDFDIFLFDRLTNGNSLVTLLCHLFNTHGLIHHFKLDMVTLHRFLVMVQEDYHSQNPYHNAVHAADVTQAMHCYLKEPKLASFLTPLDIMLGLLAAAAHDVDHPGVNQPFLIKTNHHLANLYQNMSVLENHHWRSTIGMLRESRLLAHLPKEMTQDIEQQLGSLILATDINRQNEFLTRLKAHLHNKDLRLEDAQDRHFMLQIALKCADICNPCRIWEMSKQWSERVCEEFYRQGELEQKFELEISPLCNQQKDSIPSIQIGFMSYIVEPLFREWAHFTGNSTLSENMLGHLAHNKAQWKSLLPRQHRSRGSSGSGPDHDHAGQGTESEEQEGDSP

For `Cn1nc(-c2ccc(C(N)=O)cc2)s/c1=N\C1CCCCC1` [Compound 12], the IC50 (PDE4D3) is given as 15300 nM and the IC50 (PDE7A1) is given as 61 nM.
For `O=C(Nc1ccc(N2CCOCC2)cc1)c1cn(Cc2c(F)cccc2Cl)c2ccc(=O)[nH]c2c1=O` [Compound 13], the IC50 (PDE4A4) is given as over 1000 nM and the IC50 (PDE7A1) is given as 13 nM.
In the case of `Cc1ccc([N+](=O)[O-])cc1S(=O)(=O)N(C)C` [Compound 17], the “blockade of [11C]27 cell uptake” value ([1]; blocker 1 μM, 60 min incubation, PDE7B overexpressing HEK293 cells, n = 4) is given as about 55%, the IC50 (PDE7B) is given as 12100 nM and the IC50 (PDE7A) is given as 150 nM.
For `c1ccc(-c2nc(=NCc3cccnc3)sn2-c2ccccc2)cc1` [Compound 23], the IC50 (GSK3) is listed as 1280 nM and the IC50 (PDE7 [2]) is listed as 380 nM.
With `[11CH3]Oc1ccc(Cl)c2c1C1(CCCCC1)NC(=O)N2` [[^11C]27] the “radioactivity uptake in HEK293-PDE7B cells versus control cells” value ([1]; 30 and 60 min incubation) was 6–7 fold, the logD [3] was 3.67 ± 0.04 and the “intact parent fraction in brain” value ([4]; rat brain, 5 min) was “More than 98%”. The “parent fraction in brain homogenates” value ([4]; rat brain, 30 min postinjection) was “more than 75%”, the “parent fraction in plasma” value ([4]; 5 min p.i.) was 70% ± 18% and the “parent fraction in plasma” value ([4]; 30 min p.i.) was 19% ± 0.6%. For the same compound, the in vitro stability [5] was “no obvious degradation or radiolysis was found”, the “radioactivity accumulation in heart” value ([6]; 5 min p.i.) was “up to 24 % ID/g” and the cardiac uptake ([6]; within 60 min) was “less than 2%”. The “plateau of brain uptake” value (PDE7 [7]; at 20 min postinjection) was 0.5 SUV, the “highest SUV values in brain” value (PDE7 [7]; at approximately 5 min postinjection) was over 2 SUV and the “peak SUV (SUVmax) in brain” value (PDE7 [8]; baseline) was 3 SUV. The “time of peak SUV in brain” value (PDE7 [8]; p.i.) was “about 3 min” and the “time to peak SUV in brain” value (PDE7 [9]) was at most 2 min.
